Results taken from US20230183292A1, “IMMUNOMODULATORS” (priority 2020, published 2023).
Starred links: 1 amine or outer side, 2 acyl side, 3 side chain; linkers in the order of their positions; H or OH if unused. Positions of bridges follow the written chain, without caps; N, C: chain ends. Non-standard residues stand in square brackets, D forms with d. Residues, ends and D or L forms follow the SMILES beside them. *: point of attachment. Chenodeoxycholyl = C[C@H](CCC(=O)*)[C@H]1CC[C@H]2[C@@H]3[C@H](O)C[C@@H]4C[C@H](O)CC[C@]4(C)[C@H]3CC[C@]12C; Cholyl = C[C@H](CCC(=O)*)[C@H]1CC[C@H]2[C@@H]3[C@H](O)C[C@@H]4C[C@H](O)CC[C@]4(C)[C@H]3C[C@H](O)[C@]12C; X24 = C[C@H](CCC(=O)*)[C@H]1CC[C@H]2[C@@H]3[C@H](O)[C@H](O)[C@@H]4C[C@H](O)CC[C@]4(C)[C@H]3CC[C@]12C; X23 = C[C@H](CCC(=O)*)[C@H]1CC[C@H]2[C@@H]3C(=O)[C@H](O)[C@@H]4C[C@H](O)CC[C@]4(C)[C@H]3CC[C@]12C; X14 = C[C@H](CCC(=O)*)[C@H]1CC[C@H]2[C@H]3C(C[C@H](O)[C@]12C)[C@@]1(C)CC[C@@H](O)C[C@H]1C[C@H]3O; X10 = C[C@H](CCC(=O)*)[C@H]1CC[C@H]2[C@@H]3C(=O)C[C@@H]4C[C@H](O)CC[C@]4(C)[C@H]3CC(=O)[C@]12C; X19 = C[C@H](CCC(=O)*)[C@H]1CC[C@H]2[C@@H]3CC(=O)[C@@H]4C[C@H](O)CC[C@]4(C)[C@H]3CC[C@]12C; X33 = C[C@H](CCC(=O)*)[C@H]1CC[C@H]2[C@@H]3C(=O)C[C@@H]4C[C@H](O)CC[C@]4(C)[C@H]3CC[C@]12C; X16 = C[C@H](CCC(=O)*)[C@H]1CC[C@H]2[C@@H]3CC(=O)[C@@H]4CC(=O)CC[C@]4(C)[C@H]3CC[C@]12C; X13 = CC(C)CNC(=O)Cn1cc(C[C@H](N[*:1])C(=O)[*:2])c2ccccc21; Trp(1-CH2COOH) = N[C@@H](Cc1cn(CC(=O)O)c2ccccc12)C(=O)O; X31 = CCOC(=O)Cn1cc(C[C@H](N[*:1])C(=O)[*:2])c2ccccc21; Hyp = O=C(O)[C@@H]1C[C@@H](O)CN1; NMeNle = CCCC[C@H](NC)C(=O)O; NMeA = CN[C@@H](C)C(=O)O; Dab = NCC[C@H](N)C(=O)O; Dap = NC[C@H](N)C(=O)O

molecular target: T1, PD-1/PD-L1 (Homo sapiens, UniProt Q9NZQ7); experiment: PD-1/PD-L1 Homogenous Time-Resolved Fluorescence (HTRF) binding assay; settings: PD-L1-His 10 nM, PD-1-Ig 20 nM; read-out: HTRF IC50
T1 construct: TVMV protease site (C); made in house; host or cells: HEK293T cells
From the text: The ability of the compounds of formula (I) to bind to PD-L1 was investigated using a PD-1/PD-L1 Homogenous Time-Resolved Fluorescence (HTRF) binding assay.
The interaction of PD-1 and PD-L1 can be assessed using soluble, purified preparations of the extracellular domains of the two proteins. The PD-1 and PD-L1 protein extracellular domains were expressed as fusion proteins with detection tags, for PD-1, the tag was the Fc portion of Immunoglobulin (PD-1-Ig) and for PD-L1 it was the 6 histidine motif (PD-L1-His). All binding studies were performed in an HTRF assay buffer consisting of dPBS supplemented with 0.1% […] bovine serum albumin and 0.05% (v/v) Tween-20. For the h/PD-L1-His binding assay, inhibitors were pre-incubated with PD-L1-His (10 nM final) for 15 m in 4 μl of assay buffer, followed by addition of PD-1-Ig (20 nM final) in 1 μl of assay buffer and further incubation for 15 m. HTRF detection was achieved using europium crypate-labeled anti-Ig (1 nM final) and allophycocyanin (APC) labeled anti-His (20 nM final). Antibodies were diluted in HTRF detection buffer and 5 μl was dispensed on top of the binding reaction. The reaction mixture was allowed to equilibrate for 30 minutes and the resulting signal (665 nm/620 nm ratio) was obtained using an EnVision fluorometer. Additional binding assays were established between the human proteins PD-1-Ig/PD-L2-His (20 & 5 nM, respectively) and CD80-His/PD-L1-Ig (100 & 10 nM, respectively).
Recombinant Proteins: Human PD-1 (25-167) with a C-terminal human Fc domain of immunoglobulin G (Ig) epitope tag [hPD-1 (25-167)-3S-IG] and human PD-L1 (18-239) with a C-terminal His epitope tag [hPD-L1(18-239)-TVMV-His] were expressed in HEK293T cells and purified sequentially by ProteinA affinity chromatography and size exclusion chromatography. Human PD-L2-His and CD80-His was obtained through commercial sources.
Table 1 lists the IC50 values for representative examples of this disclosure measured in the PD-1/PD-L1 Homogenous Time-Resolved Fluorescence (HTRF) binding assay.

T1 sequence (Q9NZQ7 18-239): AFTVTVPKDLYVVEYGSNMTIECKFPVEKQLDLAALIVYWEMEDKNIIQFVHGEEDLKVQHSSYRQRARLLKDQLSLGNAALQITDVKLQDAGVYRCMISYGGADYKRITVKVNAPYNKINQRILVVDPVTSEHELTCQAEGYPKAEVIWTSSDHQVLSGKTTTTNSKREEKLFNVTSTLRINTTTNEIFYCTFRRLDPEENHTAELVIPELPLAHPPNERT

Row | SMILES | IC50
1 | CCCC[C@H]1C(=O)N(C)[C@@H](CCCC)C(=O)N[C@@H](CC(C)C)C(=O)N[C@H](C(=O)NCC(N)=O)CSCC(=O)N[C@@H](Cc2ccc(O)cc2)C(=O)N(C)[C@@H](C)C(=O)N[C@@H](CC(N)=O)C(=O)N2CCC[C@H]2C(=O)N[C@@H](CNC(=O)CC[C@@H](C)[C@H]2CC[C@H]3[C@@H]4C(=O)[C@H](O)[C@@H]5C[C@H](O)CC[C@]5(C)[C@H]4CC[C@]23C)C(=O)N[C@@H](CC(C)C)C(=O)N2C[C@H](O)C[C@H]2C(=O)N[C@@H](Cc2c[nH]c3ccccc23)C(=O)N[C@@H](CCNC(=O)CC[C@@H](C)[C@H]2CC[C@H]3[C@@H]4[C@H](O)[C@H](O)[C@@H]5C[C@H](O)CC[C@]5(C)[C@H]4CC[C@]23C)C(=O)N[C@@H](Cc2cn(CC(=O)O)c3ccccc23)C(=O)N1C [Example 1015] ({CH2CO}-Y[NMeA]NP[Dap](X23)L[Hyp]W[Dab](X24)[Trp(1-CH2COOH)][NMeNle][NMeNle]LCG-NH2; thioether N-14) | 9.3 nM
2 | CCCC[C@H]1C(=O)N(C)[C@@H](CCCC)C(=O)N[C@@H](CC(C)C)C(=O)N[C@H](C(=O)NCC(N)=O)CSCC(=O)N[C@@H](Cc2ccc(O)cc2)C(=O)N(C)[C@@H](C)C(=O)N[C@@H](CC(N)=O)C(=O)N2CCC[C@H]2C(=O)N[C@@H](CNC(=O)CC[C@@H](C)[C@H]2CC[C@H]3[C@@H]4C(=O)C[C@@H]5C[C@H](O)CC[C@]5(C)[C@H]4CC[C@]23C)C(=O)N[C@@H](CC(C)C)C(=O)N2C[C@H](O)C[C@H]2C(=O)N[C@@H](Cc2c[nH]c3ccccc23)C(=O)N[C@@H](CCNC(=O)CC[C@@H](C)[C@H]2CC[C@H]3[C@@H]4C(=O)C[C@@H]5C[C@H](O)CC[C@]5(C)[C@H]4CC[C@]23C)C(=O)N[C@@H](Cc2cn(CC(=O)O)c3ccccc23)C(=O)N1C [Example 1016] ({CH2CO}-Y[NMeA]NP[Dap](X33)L[Hyp]W[Dab](X33)[Trp(1-CH2COOH)][NMeNle][NMeNle]LCG-NH2; thioether N-14) | 12 nM
3 | CCCC[C@H]1C(=O)N(C)[C@@H](CCCC)C(=O)N[C@@H](CC(C)C)C(=O)N[C@H](C(=O)NCC(N)=O)CSCC(=O)N[C@@H](Cc2ccc(O)cc2)C(=O)N(C)[C@@H](C)C(=O)N[C@@H](CC(N)=O)C(=O)N2CCC[C@H]2C(=O)N[C@@H](CNC(=O)CC[C@@H](C)[C@H]2CC[C@H]3[C@@H]4CC(=O)[C@@H]5C[C@H](O)CC[C@]5(C)[C@H]4CC[C@]23C)C(=O)N[C@@H](CC(C)C)C(=O)N2C[C@H](O)C[C@H]2C(=O)N[C@@H](Cc2c[nH]c3ccccc23)C(=O)N[C@@H](CCNC(=O)CC[C@@H](C)[C@H]2CC[C@H]3[C@@H]4CC(=O)[C@@H]5C[C@H](O)CC[C@]5(C)[C@H]4CC[C@]23C)C(=O)N[C@@H](Cc2cn(CC(=O)O)c3ccccc23)C(=O)N1C [Example 1017] ({CH2CO}-Y[NMeA]NP[Dap](X19)L[Hyp]W[Dab](X19)[Trp(1-CH2COOH)][NMeNle][NMeNle]LCG-NH2; thioether N-14) | 15 nM
4 | CCCC[C@H]1C(=O)N(C)[C@@H](CCCC)C(=O)N[C@@H](CC(C)C)C(=O)N[C@H](C(=O)NCC(N)=O)CSCC(=O)N[C@@H](Cc2ccc(O)cc2)C(=O)N(C)[C@@H](C)C(=O)N[C@@H](CC(N)=O)C(=O)N2CCC[C@H]2C(=O)N[C@@H](CNC(=O)CC[C@@H](C)[C@H]2CC[C@H]3[C@@H]4C(=O)C[C@@H]5C[C@H](O)CC[C@]5(C)[C@H]4CC(=O)[C@]23C)C(=O)N[C@@H](CC(C)C)C(=O)N2C[C@H](O)C[C@H]2C(=O)N[C@@H](Cc2c[nH]c3ccccc23)C(=O)N[C@@H](CCNC(=O)CC[C@@H](C)[C@H]2CC[C@H]3[C@@H]4C(=O)C[C@@H]5C[C@H](O)CC[C@]5(C)[C@H]4CC(=O)[C@]23C)C(=O)N[C@@H](Cc2cn(CC(=O)O)c3ccccc23)C(=O)N1C [Example 1018] ({CH2CO}-Y[NMeA]NP[Dap](X10)L[Hyp]W[Dab](X10)[Trp(1-CH2COOH)][NMeNle][NMeNle]LCG-NH2; thioether N-14) | 6.2 nM
5 | CCCC[C@H]1C(=O)N(C)[C@@H](CCCC)C(=O)N[C@@H](CC(C)C)C(=O)N[C@H](C(=O)NCC(N)=O)CSCC(=O)N[C@@H](Cc2ccc(O)cc2)C(=O)N(C)[C@@H](C)C(=O)N[C@@H](CC(N)=O)C(=O)N2CCC[C@H]2C(=O)N[C@@H](CNC(=O)CC[C@@H](C)[C@H]2CC[C@H]3[C@@H]4CC(=O)[C@@H]5CC(=O)CC[C@]5(C)[C@H]4CC[C@]23C)C(=O)N[C@@H](CC(C)C)C(=O)N2C[C@H](O)C[C@H]2C(=O)N[C@@H](Cc2c[nH]c3ccccc23)C(=O)N[C@@H](CCNC(=O)CC[C@@H](C)[C@H]2CC[C@H]3[C@@H]4CC(=O)[C@@H]5CC(=O)CC[C@]5(C)[C@H]4CC[C@]23C)C(=O)N[C@@H](Cc2cn(CC(=O)O)c3ccccc23)C(=O)N1C [Example 1019] ({CH2CO}-Y[NMeA]NP[Dap](X16)L[Hyp]W[Dab](X16)[Trp(1-CH2COOH)][NMeNle][NMeNle]LCG-NH2; thioether N-14) | 13 nM
6 | CCCC[C@H]1C(=O)N(C)[C@@H](CCCC)C(=O)N[C@@H](CC(C)C)C(=O)N[C@H](C(=O)NCC(N)=O)CSCC(=O)N[C@@H](Cc2ccc(O)cc2)C(=O)N(C)[C@@H](C)C(=O)N[C@@H](CC(N)=O)C(=O)N2CCC[C@H]2C(=O)N[C@@H](CNC(=O)CC[C@@H](C)[C@H]2CC[C@H]3[C@@H]4[C@H](O)C[C@@H]5C[C@H](O)CC[C@]5(C)[C@H]4CC[C@]23C)C(=O)N[C@@H](CC(C)C)C(=O)N2C[C@H](O)C[C@H]2C(=O)N[C@@H](Cc2c[nH]c3ccccc23)C(=O)N[C@@H](CCNC(=O)CC[C@@H](C)[C@H]2CC[C@H]3[C@@H]4[C@H](O)C[C@@H]5C[C@H](O)CC[C@]5(C)[C@H]4CC[C@]23C)C(=O)N[C@@H](Cc2cn(CC(=O)OCC)c3ccccc23)C(=O)N1C [Example 2001] ({CH2CO}-Y[NMeA]NP[Dap](Chenodeoxycholyl)L[Hyp]W[Dab](Chenodeoxycholyl)[X31][NMeNle][NMeNle]LCG-NH2; thioether N-14) | 220 nM
7 | CCCC[C@H]1C(=O)N(C)[C@@H](CCCC)C(=O)N[C@@H](CC(C)C)C(=O)N[C@H](C(=O)NCC(N)=O)CSCC(=O)N[C@@H](Cc2ccc(O)cc2)C(=O)N(C)[C@@H](C)C(=O)N[C@@H](CC(N)=O)C(=O)N2CCC[C@H]2C(=O)N[C@@H](CNC(=O)CC[C@@H](C)[C@H]2CC[C@H]3[C@@H]4[C@H](O)C[C@@H]5C[C@H](O)CC[C@]5(C)[C@H]4C[C@H](O)[C@]23C)C(=O)N[C@@H](CC(C)C)C(=O)N2C[C@H](O)C[C@H]2C(=O)N[C@@H](Cc2c[nH]c3ccccc23)C(=O)N[C@@H](CCNC(=O)CC[C@@H](C)[C@H]2CC[C@H]3[C@H]4C(C[C@H](O)[C@]23C)[C@@]2(C)CC[C@@H](O)C[C@H]2C[C@H]4O)C(=O)N[C@@H](Cc2cn(CC(=O)NCC(C)C)c3ccccc23)C(=O)N1C (stereo partly shown) [Example 2002] ({CH2CO}-Y[NMeA]NP[Dap](Cholyl)L[Hyp]W[Dab](X14)[X13][NMeNle][NMeNle]LCG-NH2; thioether N-14) | 3300 nM
